This passage reports IC50, half-life and inhibition results from ChEMBL document CHEMBL3882724 (2013).

Data set [1] deals with T1, Steroid 17-alpha-hydroxylase/17,20 lyase (Homo sapiens, UniProt P05093).
T1 sequence (P05093 whole entry): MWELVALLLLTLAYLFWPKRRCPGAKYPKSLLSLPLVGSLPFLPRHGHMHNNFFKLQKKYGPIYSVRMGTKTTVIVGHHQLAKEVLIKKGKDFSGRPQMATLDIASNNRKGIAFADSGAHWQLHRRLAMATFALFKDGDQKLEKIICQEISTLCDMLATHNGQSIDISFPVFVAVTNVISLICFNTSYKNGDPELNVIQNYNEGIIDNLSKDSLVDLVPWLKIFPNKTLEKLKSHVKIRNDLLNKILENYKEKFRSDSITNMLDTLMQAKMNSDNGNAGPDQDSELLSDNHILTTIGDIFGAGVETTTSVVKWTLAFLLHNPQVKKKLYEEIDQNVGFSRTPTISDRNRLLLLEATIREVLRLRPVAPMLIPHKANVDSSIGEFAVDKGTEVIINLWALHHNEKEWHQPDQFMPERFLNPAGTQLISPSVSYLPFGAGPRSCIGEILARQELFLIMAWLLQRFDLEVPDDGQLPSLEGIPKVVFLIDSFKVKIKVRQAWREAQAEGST
The data set is described as follows: Inhibition of CYP17 in human testicular microsomes using 17alpha-hydroxypregnenolone as substrate assessed as decrease in DHEA levels after 90 mins by ELISA. On the set-up: species or system Testis.

Data set [2] in a line: Half life in human liver microsomes at 1 uM by LC-MS/MS analysis. Background: Liver microsomes are a subcellular fraction often used to study metabolism.
Data set [3] addresses T2, CYP21 (steroid 21-hydroxylase) (Homo sapiens, UniProt P08686).
T2 sequence (P08686 whole entry): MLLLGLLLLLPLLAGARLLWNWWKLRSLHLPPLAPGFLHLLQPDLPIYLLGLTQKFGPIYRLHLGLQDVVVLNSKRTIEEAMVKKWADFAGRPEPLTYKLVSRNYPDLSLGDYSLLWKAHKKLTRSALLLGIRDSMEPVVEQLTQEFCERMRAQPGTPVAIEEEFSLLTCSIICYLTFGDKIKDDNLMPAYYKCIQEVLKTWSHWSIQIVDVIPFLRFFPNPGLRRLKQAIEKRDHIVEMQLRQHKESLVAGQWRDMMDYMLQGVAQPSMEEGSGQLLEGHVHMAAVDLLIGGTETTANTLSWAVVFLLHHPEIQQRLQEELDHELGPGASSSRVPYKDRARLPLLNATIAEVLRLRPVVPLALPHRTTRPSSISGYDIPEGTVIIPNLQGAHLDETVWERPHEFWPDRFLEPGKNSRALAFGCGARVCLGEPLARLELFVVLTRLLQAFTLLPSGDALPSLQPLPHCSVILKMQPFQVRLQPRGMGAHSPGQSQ
The data set is described as follows: Inhibition of human CYP21 transfected in HEK293 cells assessed as decrease in conversion of progesterone to 11-deoxycorticosterone preincubated for 5 hrs followed by progesterone addition measured after 20 hrs by ELISA. Type of data set: cell-based. On the set-up: concentration or dose not given beside the values. The note with it: HEK293 cells transfected with human CYP21, probe progesterone.

Usually IC50 stands for the midpoint of a concentration-inhibition curve. As usually defined, the half-life is the time in which the quantity being followed falls by half. What is called inhibition is the relative decrease from the control value, in per cent. As for `C[C@]12CC[C@@H](NC(=O)C3CC3)CC1CC[C@H]1C3CC=C(c4cccnc4)[C@@]3(C)CC[C@@H]12` (single isomer, unassigned), in data set [1], the half-inhibitory concentration (IC50) was ≤ 11 nM. Further, the half-life at 1 µM in data set [2] is 1 to 50 min. Moreover, the inhibition at 20 h in data set [3] is ≥ 50%.
`C[C@]12CCC(=O)C(O)=C1C=C[C@@H]1[C@@H]2CC[C@]2(C)C(c3cccnc3)=CC[C@@H]12` displayed a half-life at 1 µM in data set [2] of 1 to 50 min. Further, in data set [3], the inhibition at 20 h was ≥ 50%.
Turning to `C[C@]12CC[C@H](O)CC1=CC[C@@H]1[C@@H]2CC[C@]2(C)C(c3cncc(F)c3)=CC[C@@H]12`, in data set [1], the IC50 was ≤ 11 nM. The half-life at 1 µM in data set [2] is ≥ 50 min. Further, the inhibition at 20 h in data set [3] is ≥ 50%.
Turning to `C[C@@]1(O)CC[C@@]2(C)C(=CC[C@@H]3[C@@H]2CC[C@]2(C)C(c4cncc(F)c4)=CC[C@@H]32)C1`, in data set [2], the half-life at 1 µM was ≥ 50 min. In addition, the inhibition at 20 h in data set [3] is ≥ 50%.
As for `C[C@]12CC[C@H](O)CC1=CC[C@@H]1[C@@H]2CC[C@]2(C)C(c3cncc(Cl)c3)=CC[C@@H]12`, the IC50 in data set [1] was ≤ 11 nM. Moreover, the half-life at 1 µM in data set [2] fell in the range of 1 to 50 min. Moreover, the inhibition at 20 h in data set [3] was ≥ 50%.
Take `COC(=O)N[C@H]1CC[C@@]2(C)C(CC[C@H]3C4CC=C(c5cccnc5)[C@@]4(C)CC[C@@H]32)C1` (single isomer, unassigned): the half-life at 1 µM in data set [2] was 1 to 50 min. The inhibition at 20 h in data set [3] was ≥ 50%.
For `CC(=O)N[C@@H]1CC[C@@]2(C)C(=CC[C@@H]3[C@@H]2CC[C@]2(C)C(c4cncc(F)c4)=CC[C@@H]32)C1`, in data set [1], the IC50 was ≤ 11 nM. Moreover, the half-life at 1 µM in data set [2] was in the range of 1 to 50 min. The inhibition at 20 h in data set [3] is ≥ 50%.
The corresponding values for `C[C@]12CCC(=O)C=C1C(F)C[C@@H]1[C@@H]2CC[C@]2(C)C(c3cncc(F)c3)=CC[C@@H]12` (some centres undefined) are ≤ 11 nM, 1 to 50 min and ≥ 50%.
The corresponding values for `CC(=O)N[C@@H]1CC[C@@]2(C)C(=CC[C@@H]3[C@@H]2CC[C@]2(C)C(c4cncc(C(F)F)c4)=CC[C@@H]32)C1` are ≤ 11 nM, 1 to 50 min and ≥ 50%.
`CC(=O)N[C@@H]1CC[C@@]2(C)C(CC[C@H]3C4=CC=C(c5cccnc5)[C@@]4(C)CC[C@@H]32)C1` (some centres undefined) returned a half-life at 1 µM in data set [2] of 1 to 50 min. In data set [3], the inhibition at 20 h is ≥ 50%.
Turning to `Cc1cncc(C2=CC=C3[C@@H]4CCC5CC(=O)NCC[C@]5(C)[C@H]4CC[C@]23C)c1` (some centres undefined), in data set [1], the 50% inhibitory concentration (IC50) is ≤ 11 nM. Also, in data set [3], the inhibition at 20 h was ≥ 50%.
As for `C[C@]12CC[C@H]3[C@@H](CC(F)[C@]4(O)C[C@@H](O)CC[C@]34C)[C@@H]1CC=C2c1cccnc1` (some centres undefined), in data set [1], the IC50 is ≤ 11 nM. The same compound yielded a half-life at 1 µM in data set [2] of 1 to 50 min. In addition, the inhibition at 20 h in data set [3] was ≥ 50%.
Take `C[C@]1(O)CC[C@@]2(C)C(CC[C@@H]3[C@@H]2CC[C@]2(C)C(c4cccnc4)=CC[C@@H]32)C1` (some centres undefined): in data set [1], the IC50 is ≤ 11 nM. For the same compound, the half-life at 1 µM in data set [2] is 1 to 50 min. The inhibition at 20 h in data set [3] was ≥ 50%.
`CC(=O)N[C@@H]1CC[C@@]2(C)C(=CC[C@@H]3[C@@H]2CC[C@]2(C)C(c4cncc(C(F)(F)F)c4)=CC[C@@H]32)C1` displayed a half-life at 1 µM in data set [2] of 1 to 50 min. Moreover, the inhibition at 20 h in data set [3] lay within 10 to 50%.
Regarding `C[C@]12CC[C@H]3[C@@H](CC=C4C[C@H](O)CC[C@@]43C)C1=CC=C2c1cccnc1`, the IC50 in data set [1] was ≤ 11 nM. For the same compound, the half-life at 1 µM in data set [2] lay within 1 to 50 min. The inhibition at 20 h in data set [3] is ≥ 50%.
Regarding `C[C@]12CCNC(=O)C=C1C(F)C[C@@H]1[C@@H]2CC[C@]2(C)C(c3cccnc3)=CC[C@@H]12` (some centres undefined), the IC50 in data set [1] was ≤ 11 nM. Moreover, in data set [2], the half-life at 1 µM lay in the range of 1 to 50 min. The inhibition at 20 h in data set [3] is ≥ 50%.
Taken in the same sequence, the figures for `C[C@]12CC[C@H]3[C@@H](CC(O)C45CC4CC[C@]35C)C1=CC=C2c1cccnc1` (some centres undefined) were ≤ 11 nM, 1 to 50 min and ≥ 50%.
For the compound `CCNC(=O)N[C@@H]1CC[C@@]2(C)C(=CC[C@@H]3[C@@H]2CC[C@]2(C)C(c4cccnc4)=CC[C@@H]32)C1`, the half-life at 1 µM in data set [2] was in the range of 1 to 50 min. The inhibition at 20 h in data set [3] is ≥ 50%.
Consider `C[C@]1(O)CC[C@@]2(C)C(CC[C@H]3C4=CC=C(c5cccnc5)[C@@]4(C)CC[C@@H]32)C1` (some centres undefined), for which the IC50 in data set [1] is ≤ 11 nM. Further, in data set [2], the half-life at 1 µM was in the range of 1 to 50 min. For the same compound, the inhibition at 20 h in data set [3] lay in the range of 10 to 50%.
Taken in the same sequence, the figures for `C[C@]12CC[C@H]3[C@@H](CC(F)[C@@]4(O)C[C@@H](O)CC[C@]34C)[C@@H]1CC=C2c1cccnc1` (some centres undefined) were ≤ 11 nM, 1 to 50 min and ≥ 50%.
As for `C[C@]12CC[C@@H](NC(=O)C3CCC3)CC1=CC[C@@H]1[C@@H]2CC[C@]2(C)C(n3ccnc3)=CC[C@@H]12`, in data set [1], the IC50 is ≤ 11 nM. The same compound came in with a half-life at 1 µM in data set [2] of 1 to 50 min. Further, the inhibition at 20 h in data set [3] is ≥ 50%.
`COc1cncc(C2=CC[C@H]3[C@@H]4CCC5C[C@@H](NC(C)=O)CC[C@]5(C)[C@H]4CC[C@]23C)c1` (some centres undefined) had a half-life at 1 µM in data set [2] of 1 to 50 min. In addition, the inhibition at 20 h in data set [3] was ≥ 50%.
The corresponding values for `C[C@]12CC[C@H](O)CC1=CC[C@@H]1[C@@H]2CC[C@]2(C)C(c3ccc(F)nc3)=CC[C@@H]12` are 1 to 50 min and 10 to 50%.
Turning to `CC(=O)NC1CC[C@@]2(C)C(CC[C@@H]3[C@@H]2CC[C@]2(C)C(c4cccnc4)=CC[C@@H]32)C1` (single isomer, unassigned), the IC50 in data set [1] was ≤ 11 nM. Also, in data set [2], the half-life at 1 µM lay in the range of 1 to 50 min. In data set [3], the inhibition at 20 h was ≥ 50%.
With `CC1=C2CC[C@@H]3[C@H](CC[C@]4(C)C(c5cccnc5)=CC[C@@H]34)[C@@]2(C)CCC1O` (some centres undefined), the IC50 in data set [1] is ≤ 11 nM. The inhibition at 20 h in data set [3] lay within 10 to 50%.
For the compound `C[C@]12CC[C@H]3[C@@H](CC(F)C4(O)CC(=O)CC[C@]34C)[C@@H]1CC=C2c1cncc(F)c1` (some centres undefined), the IC50 in data set [1] is ≤ 11 nM. Besides, in data set [3], the inhibition at 20 h is ≥ 50%.
Taken in the same sequence, the figures for `C[C@]12CC[C@H]3[C@@H](CC(F)C4(O)CC(=O)CC[C@]34C)[C@@H]1CC=C2c1cccnc1` (some centres undefined) were ≤ 11 nM and ≥ 50%.
`CC[C@]1(O)CC[C@@]2(C)C(CC[C@@H]3[C@@H]2CC[C@]2(C)C(c4cccnc4)=CC[C@@H]32)C1` (some centres undefined) displayed a half-life at 1 µM in data set [2] of 1 to 50 min. Besides, in data set [3], the inhibition at 20 h is 10 to 50%.
Regarding `C[C@]12CCC(=O)C=C1C(=O)C[C@@H]1[C@@H]2CC[C@]2(C)C(c3cncc(F)c3)=CC[C@@H]12`, the concentration for half-maximal inhibition (IC50) in data set [1] was ≤ 11 nM. Moreover, the inhibition at 20 h in data set [3] is ≥ 50%.
The compound `CC1(C)C2=CC[C@H]3C4=CC=C(c5cccnc5)[C@@]4(C)CC[C@@H]3[C@@]2(C)CCC1O` (some centres undefined) yielded a half-life at 1 µM in data set [2] of 1 to 50 min. The inhibition at 20 h in data set [3] was 10 to 50%.
For the compound `CC1C[C@H]2[C@@H]3CC=C(c4cccnc4)[C@@]3(C)CC[C@@H]2[C@@]2(C)CC[C@H](O)CC12O` (some centres undefined), the IC50 in data set [1] is ≤ 11 nM. For the same compound, the inhibition at 20 h in data set [3] was ≥ 50%.
For the compound `C[C@]12CCC(=O)CC1C(=O)C[C@@H]1[C@@H]2CC[C@]2(C)C(c3cncc(F)c3)=CC[C@@H]12` (some centres undefined), the IC50 in data set [1] is ≤ 11 nM. In addition, the inhibition at 20 h in data set [3] is ≥ 50%.
